Like-named read-outs stand apart in the source and are kept apart here. One block for each compound: values may come before it.
Legend:
[1] = test system: osteoblastic (MC3T3-E1) and chondrocytic (N1511) cells; conditions: cited from earlier work
[2] = US-mediated methylene blue release from PLA-sealed multiport (1 mm) PEEK sheath; assay type: physicochemical
Protocol: Multiple 1 mm holes (left) and one 3 mm hole (right) sheaths were submerged in water and release of methylene blue (MeB) or MeB+VAN was measured spectrophotometrically.
During the first 15 min of immersion, 11 mg and 3 mg of drug were released (due to surface amounts in PLA) from the groups. […] With a 15 min insonation (5 MHz, 3 MPa), 15 mg was released within one hour and the remaining 24 mg of drug was released by 72 hrs^39. (4) Three PLA coatings for US rupture using highly porous PEEK.

[3] = US release of VAN from porous PLA-sealed PEEK block; assay type: physicochemical; conditions: 10 mg VAN loaded; 10 min US insonation (5 MHz, 4 MPa)
Protocol: During the first 15 min of immersion, 11 mg and 3 mg of drug were released (due to surface amounts in PLA) from the groups. […] […] (4) Three PLA coatings for US rupture using highly porous PEEK.

[4] = VAN release from PLA-sealed sheaths in spinal levels of a cadaverous rabbit; conditions: 4 mg VAN-loaded PLA-sealed sheaths; 20 min, 5 MHz, 3 MPa pk-pk; US parameters not optimized
Protocol: (§1) The first set of experiments uses rabbit carcasses to establish US parameters that reproducibly release the desired amounts of ABX within a mock spinal fusion site. Preliminary tests on such animals in which VAN-loaded (4 mg), PLA-sealed sheaths were placed in 4 spinal levels of a cadaverous rabbit. Site 1 and Site 3 were inoculated with 10^4 CFU S. aureus in 100 μL PBS, and Site 2 and 4 were encased in plastic to collect released VAN. Without any optimization of US parameters, ˜50% of the VAN was released by insonation (20 min, 5 MHz, 3 MPapk-pk) and caused ˜10× less bacterial colonization.

S. aureus [5] = assay: Bacterial colonization of inoculated spinal sites in a cadaverous rabbit; conditions: sites inoculated with 10^4 CFU S. aureus; insonation 20 min, 5 MHz, 3 MPa pk-pk
Protocol: as §1

bacterial lawn = assay: Passive elution of VAN from allograft bone and bacterial killing (FIG. 6); conditions: initial loading 10 mg/ml VAN
Protocol: Antibacterial activity of bone allografts: comparison of a new vancomycin-tethered allograft with allograft loaded with adsorbed vancomycin. This is an example of the elution that can be achieved without enhancement by ultrasound.
(initial loading: 10 mg/ml VAN, FIG. 6). However, a preferred sheath is sealed so that it retains antibiotics without leakage for up to 7 days (to allow for triggered release at any time prior to patient discharge) and then releases >99% of the antibiotics within 24 hrs. of US insonation. Accordingly, release can be determined based on the specific needs of the patient. Therapeutic materials loaded into the sheath may be liquids, solids, gels, or combinations thereof. Release profile of these different materials may require different structures to allow for the appropriate release.

S. aureus [6] = conditions: cited from earlier work
bacteria = conditions: US plus VAN; cited from earlier work

SMILES: O=C(O)c1cn(C2CC2)c2cc(N3CCNCC3)c(F)cc2c1=O [CIP, ciprofloxacin]
concentration at which toxicity / cell death initiates [1]: 0.15 to 0.2 mg/mL

increase in MeB release, US group ([2]; US insonated, over 8 days): 757% | increase in MeB release, non-insonated controls ([2]; no US, at 2 days): 26% | additional MeB release, non-insonated controls ([2]; no US, out to 6 days): no additional release
SMILES: CN(C)c1ccc2nc3ccc(=[N+](C)C)cc-3sc2c1 [MeB, methylene blue]

SMILES: NC[C@H]1O[C@H](O[C@H]2[C@H](O)[C@@H](O[C@H]3O[C@H](CO)[C@@H](O)[C@H](N)[C@H]3O)[C@H](N)C[C@@H]2N)[C@H](N)C[C@@H]1O [TOB, tobramycin]
concentration at which toxicity / cell death initiates [1]: ~0.5 mg/mL

SMILES: CN[C@H](CC(C)C)C(=O)N[C@H]1C(=O)N[C@@H](CC(N)=O)C(=O)N[C@H]2C(=O)N[C@H]3C(=O)N[C@H](C(=O)N[C@H](C(=O)O)c4cc(O)cc(O)c4-c4cc3ccc4O)[C@H](O)c3ccc(c(Cl)c3)Oc3cc2cc(c3O[C@@H]2O[C@H](CO)[C@@H](O)[C@H](O)[C@H]2O[C@H]2C[C@](C)(N)[C@H](O)[C@H](C)O2)Oc2ccc(cc2Cl)[C@H]1O [VAN, vancomycin]
released VAN after US insonation [3]: 7.5 mg | VAN released by insonation [4]: ~50% | less bacterial colonization (S. aureus [5]): ~10 × | bacterial killing (bacterial lawn; especially within the first 48 hr.): significant bacterial killing | elution from allograft bone (bacterial lawn; no ultrasound): rapid passive elution | bacterial levels on metal surface versus 0 and 4 ug/ml VAN (S. aureus [6]; 100 ug/ml of VAN (FIG. 2C)): massive reduction in bacterial levels | reduction of bacterial colonization (S. aureus [6]; 1 hr., 100× MIC): many-fold | further decrease of bacterial numbers by US in the presence of VAN (bacteria): 50-90% | concentration at which toxicity / cell death initiates ([1]; MC3T3-E1 and N1511 cells): above 1 mg/ml | toxicity in words ([1]; MC3T3-E1 and N1511 cells): low toxicity

— US10485902B2, “Antibiotic drug release sheath” (Thomas Jefferson University, priority 2015, dated 2019)
